Data on four compounds can be found in patent US10975060B2, “High relaxivity gadolinium chelate compounds for use in magnetic resonance imaging” (BAYER PHARMA AKTIENGESELLSCHAFT, priority 2016, dated 2021).

Type in all cases: physicochemical
The nature of data set [1]: Relaxivity measurements at 1.4 T (MiniSpec mq60, 60 MHz, 37 °C) in water and human plasma. To be noted: 1.41 T, normalized to Gd. As for the experimental part: Relaxivity Measurements at 1.4 T
Relaxivity measurements at 1.41 T were performed using a MiniSpec mq60 spectrometer (Bruker Analytik, Karlsruhe, Germany) operating at a resonance frequency of 60 MHz and a temperature of 37° C. The T1 relaxation times were determined using the standard inversion recovery (IR) method with a fixed relaxation delay of at least 5×T1. The variable inversion time (TI) was calculated automatically by the standard software of the MiniSpec mq60 (8 steps). The T2 measurements were done by using a Carr-Purcell-Meiboom-Gill (CPMG) pulse sequence, applying a relaxation delay of at least 5×T1.
Each relaxivity measurement was performed using three different Gd concentrations (3 concentrations between 0.05 and 2 mM). The T1 and T2 relaxation times of the example compounds 1 to 10 were measured in different media for example in water and human plasma. Human plasma preparation: For each experiment fresh blood was taken from a volunteer using 10 mL citrate-tubes (Sarstedt S-Monovette 02.1067.001, 10 mL, Citrate). The 10 mL citrate-tubes were carefully inverted 10 times to mix blood and anticoagulant and centrifuged for 15 minutes at 1811 g at room temperature (Eppendorf, Centrifuge 5810R).
The relaxivities ri (where i=1, 2) were calculated on the basis of the measured relaxation rates Ri in water and plasma: Ri=Ri(0)+ri[CGd], where Ri(0) represent the relaxation rate of the respective solvent and CGd the concentration of the compound normalized to the Gadolinium. The Gadolinium concentrations of the investigated solutions were verified by Inductively Coupled Plasma Mass Spectrometry (ICP-MS Agilent 7500a, Waldbronn, Germany).

Data set [2] can be described thus: Dynamic CT diffusion phantom study (dialysis cassette in fetal bovine serum). To be noted: dialysis cassette 20,000 MWCO, 20 mmol Gd/L, CT signal over 30 h. As for the experimental part: The described dynamic CT diffusion study compares the ability of Examples 1-10 and Reference compounds 1 and 4 to pass a semipermeable membrane (20 kDa). A 128-row clinical CT device (SOMATOM Definition, 128; Siemens Healthcare, Forchheim, Germany) was used to monitor the diffusion through a semipermeable membrane at 100 kV and 104 mA. Single measurements were performed at 0 min, 1 min, 2 min, 3 min, 5 min, 10 min, 15 min, 20 min, 30 min, 45 min, 60 min, 2 h, 3 h, 5 h, 7 h, 22 h, 24 h, 30 h after placing the dialysis cassette (Slide-A-Lyser, 20,000 MWCO, 0.1-0.5 mL Capacity, Thermo Scientific, Roskilde, Denmark) filled with contrast agent in fetal bovine serum solution (FBS, Sigma, F7524). The images were reconstructed with a slice thickness of 2.4 mm and a B30 convolution kernel. The used concentration in the dialysis cassettes of the investigated Examples 1-10 and Reference compounds 1 and 4 was 20 mmol Gd/L.
The imaging results for all investigated Examples and the Reference compounds 1 and 4 for the time points 0 min and 30 h after placing the cassettes in the FBS solution are depicted in FIG. 1. For image analysis, regions of interest were manually drawn on 1 centrally located slice for each time point (a representative measurement region is indicated in FIG. 1: Image RC1).

The nature of data set [3]: Water solubility (exploratory, 10 mM Tris-HCl, 20 °C). To be noted: water (10 mM Tris-HCl buffer), pH 7.4. As for the experimental part: The exploratory water solubilities of the compounds were determined at room temperature (20° C.) in 0.5 mL buffer solution (10 mM Tris-HCl) in the microcentrifuge tubes (Eppendorf, 2.0 mL safe-lock caps). The solid compounds were added stepwise to the buffer solution. The suspension was mixed using a shaker (Heidolph Reax 2000) and treated 5 min in an ultrasound bath (Bandelin, Sonorex Super RK255H).

Data set [4] is described as follows: Relaxivity measurements at 3.0 T (whole body MRI scanner, 37 °C) in water and human plasma. To be noted: normalized to Gd, average ± standard deviation. As for the experimental part: Relaxivity Measurements at 3.0 T
Relaxivity measurements at 3.0 T were performed with a whole body 3.0 T MRI Scanner (Philips Intera, Philips Healthcare, Hamburg, Germany) using a knee-coil (SENSE-Knee-8, Philips Healthcare, Hamburg, Germany). The sample tubes (CryoTubetm Vials, Thermo Scientific 1.8 mL, Roskilde, Denmark) were positioned in 3 rows of 4 and 5 tubes in a plastic holder in a box filled with water. The temperature was adjusted to 37° C. For the MRI sequence the shortest possible echo-time (TE) with 7.46 milliseconds was used. The inversion times were chosen to optimize the sequence to measure T1 values corresponding to the estimated T1 range of all relaxation times of contrast media containing solutions. The following inversion times (TIs) were applied: 50, 100, 150, 200, 300, 500, 700, 1000, 1400, 2100, 3200, and 4500 milliseconds. The sequence was run with a constant relaxation delay of 3.4 seconds after the registration of the last echo (variable TR in the range from 3450 to 7900 milliseconds). For details of the fit procedure, see Rohrer et. al. (Invest. Radiol. 2005; 40, 11: 715-724). The experimental matrix of the phantom measurement was 320×320.
The relaxivities were evaluated using three different concentrations of each compound (3 concentrations between 0.05 and 2 mM).
The T1 relaxation times of Example compounds were measured in water and human plasma. Human plasma preparation: For each experiment fresh blood was taken from a volunteer using 10 mL citrate-tubes (Sarstedt S-Monovette 02.1067.001, 10 mL, Citrate). The 10 mL citrate-tubes were carefully inverted 10 times to mix blood and anticoagulant and centrifuged for 15 minutes at 1811 g at room temperature (Eppendorf, Centrifuge 5810R).
The relaxivities ri (where i=1, 2) were calculated on the basis of the measured relaxation rates Ri in water and plasma: Ri=Ri(0)+ri[CGd], where Ri(0) represent the relaxation rate of the respective solvent and CGd the concentration of the compound normalized to the Gadolinium (Table 2).

As for `O=C([O-])CN1CCN(CC(=O)[O-])CCN(CC(=O)N(CC(=O)NCC(CNC(=O)CN(C(=O)CN2CCN(CC(=O)[O-])CCN(CC(=O)[O-])CCN(CC(=O)[O-])CC2)C2CC2)(CNC(=O)CN(C(=O)CN2CCN(CC(=O)[O-])CCN(CC(=O)[O-])CCN(CC(=O)[O-])CC2)C2CC2)CNC(=O)CN(C(=O)CN2CCN(CC(=O)[O-])CCN(CC(=O)[O-])CCN(CC(=O)[O-])CC2)C2CC2)C2CC2)CCN(CC(=O)[O-])CC1.[Gd+3].[Gd+3].[Gd+3].[Gd+3]` [Example 7, Tetragadolinium [4,10-bis(carboxylatomethyl)-7-{3,13-dicyclopropyl-8,8-bis({[(cyclopropyl{[4,7,10-tris(carboxylatomethyl)-1,4,7,10-tetraazacyclododecan-1-yl]acetyl}-amino)acetyl]amino}methyl)-2,5,11,14-tetraoxo-15-[4,7,10-tris(carboxylatomethyl)-1,4,7,10-tetraazacyclododecan-1-yl]-3,6,10,13-tetraazapentadec-1-yl}-1,4,7,10-tetra-azacyclododecan-1-yl]acetate], the values for the r1 human plasma in data set [1] and in data set [4] were 12.1 L/mmol/s and 11.1 ± 0.1 L/mmol/s, respectively. The r1 water in data set [1] stood at 10.6 L/mmol/s; in data set [4], 9.7 ± 0.1 L/mmol/s. Moreover, in data set [2], the “Diffusion half-live (20 kDa)” value worked out at 14.0 h. The Solubility in data set [3] is >1000 mg/100 mL.
In the case of `CCOCCN(CC(=O)NCC(CNC(=O)CN(CCOCC)C(=O)CN1CCN(CC(=O)[O-])CCN(CC(=O)[O-])CCN(CC(=O)[O-])CC1)(CNC(=O)CN(CCOCC)C(=O)CN1CCN(CC(=O)[O-])CCN(CC(=O)[O-])CCN(CC(=O)[O-])CC1)CNC(=O)CN(CCOCC)C(=O)CN1CCN(CC(=O)[O-])CCN(CC(=O)[O-])CCN(CC(=O)[O-])CC1)C(=O)CN1CCN(CC(=O)[O-])CCN(CC(=O)[O-])CCN(CC(=O)[O-])CC1.[Gd+3].[Gd+3].[Gd+3].[Gd+3]` [Example 4, Tetragadolinium {4,10-bis(carboxylatomethyl)-7-[16-(2-ethoxyethyl)-11,11-bis[({[(2-ethoxyethyl){[4,7,10-tris(carboxylatomethyl)-1,4,7,10-tetraazacyclododecan-1-yl]-acetyl}amino]acetyl}amino)methyl]-8,14,17-trioxo-6-{[4,7,10-tris(carboxylatomethyl)-1,4,7,10-tetraazacyclododecan-1-yl]acetyl}-3-oxa-6,9,13,16-tetraazaoctadecan-18-yl]-1,4,7,10-tetraazacyclododecan-1-yl}acetate], the r1 human plasma in data set [1] was 12.5 L/mmol/s; in data set [4], 11.3 ± 0.01 L/mmol/s. Besides, the figures for the r1 water in data set [1] and in data set [4] were 11.1 L/mmol/s and 10.1 ± 0.2 L/mmol/s, respectively. Also, in data set [2], the “Diffusion half-live (20 kDa)” value was determined as 10.1 h. Further, the Solubility in data set [3] was >1000 mg/100 mL.
As to `COCCN(CC(=O)NCC(CNC(=O)CN(CCOC)C(=O)CN1CCN(CC(=O)[O-])CCN(CC(=O)[O-])CCN(CC(=O)[O-])CC1)(CNC(=O)CN(CCOC)C(=O)CN1CCN(CC(=O)[O-])CCN(CC(=O)[O-])CCN(CC(=O)[O-])CC1)CNC(=O)CN(CCOC)C(=O)CN1CCN(CC(=O)[O-])CCN(CC(=O)[O-])CCN(CC(=O)[O-])CC1)C(=O)CN1CCN(CC(=O)[O-])CCN(CC(=O)[O-])CCN(CC(=O)[O-])CC1.[Gd+3].[Gd+3].[Gd+3].[Gd+3]` [Example 3, Tetragadolinium {4,10-bis(carboxylatomethyl)-7-[15-(2-methoxyethyl)-10,10-bis[({[(2-methoxyethyl){[4,7,10-tris(carboxylatomethyl)-1,4,7,10-tetraazacyclododecan-1-yl]-acetyl}amino]acetyl}amino)methyl]-7,13,16-trioxo-5-{[4,7,10-tris(carboxylatomethyl)-1,4,7,10-tetraazacyclododecan-1-yl]acetyl}-2-oxa-5,8,12,15-tetraazaheptadecan-17-yl]-1,4,7,10-tetraazacyclododecan-1-yl}acetate], in data set [1], the r1 human plasma was 11.7 L/mmol/s and the r1 water worked out at 10.3 L/mmol/s. Further, the “Diffusion half-live (20 kDa)” value in data set [2] worked out at 11.6 h. Also, the Solubility in data set [3] was >1000 mg/100 mL. In data set [4], this compound returned a r1 human plasma of 10.9 ± 0.1 L/mmol/s and a r1 water of 9.5 ± 0.1 L/mmol/s.
With `CC(C)N(CC(=O)NCC(CNC(=O)CN(C(=O)CN1CCN(CC(=O)[O-])CCN(CC(=O)[O-])CCN(CC(=O)[O-])CC1)C(C)C)(CNC(=O)CN(C(=O)CN1CCN(CC(=O)[O-])CCN(CC(=O)[O-])CCN(CC(=O)[O-])CC1)C(C)C)CNC(=O)CN(C(=O)CN1CCN(CC(=O)[O-])CCN(CC(=O)[O-])CCN(CC(=O)[O-])CC1)C(C)C)C(=O)CN1CCN(CC(=O)[O-])CCN(CC(=O)[O-])CCN(CC(=O)[O-])CC1.[Gd+3].[Gd+3].[Gd+3].[Gd+3]` [Example 5, Tetragadolinium [4,10-bis(carboxylatomethyl)-7-{3,13-diisopropyl-8,8-bis({[(isopropyl-{[4,7,10-tris(carboxylatomethyl)-1,4,7,10-tetraazacyclododecan-1-yl]acetyl}amino)-acetyl]amino}methyl)-2,5,11,14-tetraoxo-15-[4,7,10-tris(carboxylatomethyl)-1,4,7,10-tetraazacyclododecan-1-yl]-3,6,10,13-tetraazapentadec-1-yl}-1,4,7,10-tetraazacyclo-dodecan-1-yl]acetate], in data set [1], the r1 human plasma is 13.1 L/mmol/s and the r1 water is 11.1 L/mmol/s. The “Diffusion half-live (20 kDa)” value in data set [2] was 10.8 h. Also, the Solubility in data set [3] is >1000 mg/100 mL. Also, in data set [4], the r1 human plasma was 11.6 ± 0.4 L/mmol/s and the r1 water amounted to 10.2 ± 0.1 L/mmol/s.
